# Results published in patent US20250376441A1, “NOVEL COMPOUND AND PHARMACEUTICAL COMPOSITION COMPRISING SAME AS ACTIVE INGREDIENT” (Industry-Academic Cooperation Foundation, Yonsei University, priority 2017, published 2025).
# Where “and” joins values, the source holds several entries; their conditions need not be identical. Equal values may be shown once. Read-outs that look alike come from different tables or passages of the source.
# Tests used:
# [1] = system: amyloid-beta peptide1-42 degenerative neurological disease-induced mice; experiment: Morris water maze test; type: in vivo, ICR mice
# From the text: Six-week-old ICR mice (male) were purchased, and then examined for general health for 6 days while subjecting them to quarantine and acclimation under an environment of animal breeding room. Then, healthy individuals were selected and used for the experiment. Identification of each individual was made by marking the number of each individual on the tail using a permanent marker, and identification of a breeding box was made by attaching an individual identification card on which test number, test substance name, test item, date of acquisition, acclimation period, date of grouping, test period, sex/animal number, and person in charge are indicated.
# In order to induce a degenerative neurological disease, the experimental animals of Preparatory Example 1 were anesthetized by inhalation with 2.5% isoflurane. Then, 1 μg of amyloid-beta peptide1-42, a degenerative neurological disease-inducing substance, was administered to the animals at both hippocampal positions (AP: −2.3, L: ±2.0, H: −1.5) using a stereotaxic apparatus. […] For the administration, 1 μl was injected, at a flow rate of 0.2 μl/min, with a […] gas-tight glass syringe (Hamilton, Reno, NV, USA) using a perfusion pump (Pump 22, Harvard Apparatus, South Natick, MA, USA). Subsequently, the syringe was allowed to stand for 5 minutes and then removed.
# Then, a degenerative neurological disease was induced as in Preparation Example 2.
# After induction of the degenerative neurological disease, the following test was conducted after a one-day recovery period passed.
# A circular pool (diameter: 120 cm, height: 75 cm) was filled with water to a depth of 25±1 cm as in FIG. 4, and a 24 cm platform was prepared by hiding it 1 cm below the water surface. Space cues were installed on the four sides of the wall so that the aminals can identify locations, and skimmed milk powder was dissolved into water so that the animals cannot identify the platform with naked eyes. One day before the experiment, all the experimental animals were allowed to swim freely for 1 minute in a water bath having no platform, so that the animals can adapt to the swimming situation. After that, a test group was allowed to start, in any order, from two of the three quadrants except the quadrant where the platform was placed, and allowed to find the platform for 60 seconds. In a case where an animal finds the platform, the animal was allowed to stay thereon for 20 seconds. […] As soon as end of the position learning time, which is the 20-second staying time, the animal was allowed to start again from any quadrant, and the time and distance to reach the platform were measured. The procedure was performed four times a day, and all procedures were taken with a camera and analyzed with a video tracking system (Panlab, USA). Probe trials were made on the fifth day after the four-day experiment in toal was completed. The test group was allowed to swim freely for 90 seconds without the platform, thereby performing evaluation on whether the test group holds a memory of the platform location. The results are illustrated in FIGS. 5 to 7.
# acetylcholine hydrolase = type: in vivo; details: brain tissue
# Method: (§1) Subsequently, the syringe was allowed to stand for 5 minutes and then removed.
# Then, acetylcholine hydrolase activity was measured by the following method. To a microplate were continuously added 300 μl of 0.1 M Tris buffer, pH 8.0 (Trizma HCl±Trizmabase), 20 μl of 0.01 M dithionitrobenzoic acid (DTNB; Sigma, USA), 10 μl of brain tissue homogenate (enzyme suspension). Immediately before absorbance measurement, 10 μl of 0.1 M acetylthiocholine chloride (Sigma, USA) as a substrate was added thereto. An absorbance meter was used to observe absorbance changes at 405 nm for 5 minutes, so that acetylcholine hydrolase activity (unit/min/mg protein) was measured.
# [2] = system: acetylcholine in brain tissues; experiment: Acetylcholine content in brain tissue; type: in vivo, ICR mice
# Method: as §1
# Measurement of acetylcholine in brain tissues was performed based on response of o-acyl derivatives with alkaline hydroxylamine. Specifically, 50 μl of brain tissue was taken and 50 μl of 1% hydroxylamine (Sigma, USA) was added and mixed. […] Finally, 500 μl of FeCl3 (10% in 0.1 N HCl) was added to measure an acetylcholine level (umole/mg protein), and then the absorbance was measured at 530 nm.
# [3] = system: Salmonella typhimurium TA100
# Method: For each strain, treatment with a single concentration of 200 μg/plate was performed in triplicate and mutation was checked.
# VERO = experiment: Cytotoxicity test (Cyto X cell viability assay kit), VERO; type: cell-based; details: Chlorocebus sabaeus
# Method: (§2) In order to identify whether the Preparation Example 6 according to the present invention is toxic to cells, a cytotoxicity test was conducted at the Korea Research Institute of Chemical Technology using the Cyto X™ cell viability assay kit ([…]).
# CHO-K1 = experiment: Cytotoxicity test (Cyto X cell viability assay kit), CHO-K1; type: cell-based; details: Cricetulus griseus
# Method: as §2
# hERG channel = hERG channel (Homo sapiens, UniProt Q12809); experiment: Cardiac stability test, hERG ligand binding assay; details: read-out: Inhibition rate
# [4] = Solubility by nephelometry; type: physicochemical; details: 5% DMSO in water, aqueous with cosolvent or surfactant or cyclodextrin, kinetic from dmso stock, DMSO 5%/water solvent
# Method: For a preliminary examination on clinical application of the Preparation Example 6, evaluation on lipophilicity and solubility was performed.
# Chain of hERG channel (Q12809 whole entry): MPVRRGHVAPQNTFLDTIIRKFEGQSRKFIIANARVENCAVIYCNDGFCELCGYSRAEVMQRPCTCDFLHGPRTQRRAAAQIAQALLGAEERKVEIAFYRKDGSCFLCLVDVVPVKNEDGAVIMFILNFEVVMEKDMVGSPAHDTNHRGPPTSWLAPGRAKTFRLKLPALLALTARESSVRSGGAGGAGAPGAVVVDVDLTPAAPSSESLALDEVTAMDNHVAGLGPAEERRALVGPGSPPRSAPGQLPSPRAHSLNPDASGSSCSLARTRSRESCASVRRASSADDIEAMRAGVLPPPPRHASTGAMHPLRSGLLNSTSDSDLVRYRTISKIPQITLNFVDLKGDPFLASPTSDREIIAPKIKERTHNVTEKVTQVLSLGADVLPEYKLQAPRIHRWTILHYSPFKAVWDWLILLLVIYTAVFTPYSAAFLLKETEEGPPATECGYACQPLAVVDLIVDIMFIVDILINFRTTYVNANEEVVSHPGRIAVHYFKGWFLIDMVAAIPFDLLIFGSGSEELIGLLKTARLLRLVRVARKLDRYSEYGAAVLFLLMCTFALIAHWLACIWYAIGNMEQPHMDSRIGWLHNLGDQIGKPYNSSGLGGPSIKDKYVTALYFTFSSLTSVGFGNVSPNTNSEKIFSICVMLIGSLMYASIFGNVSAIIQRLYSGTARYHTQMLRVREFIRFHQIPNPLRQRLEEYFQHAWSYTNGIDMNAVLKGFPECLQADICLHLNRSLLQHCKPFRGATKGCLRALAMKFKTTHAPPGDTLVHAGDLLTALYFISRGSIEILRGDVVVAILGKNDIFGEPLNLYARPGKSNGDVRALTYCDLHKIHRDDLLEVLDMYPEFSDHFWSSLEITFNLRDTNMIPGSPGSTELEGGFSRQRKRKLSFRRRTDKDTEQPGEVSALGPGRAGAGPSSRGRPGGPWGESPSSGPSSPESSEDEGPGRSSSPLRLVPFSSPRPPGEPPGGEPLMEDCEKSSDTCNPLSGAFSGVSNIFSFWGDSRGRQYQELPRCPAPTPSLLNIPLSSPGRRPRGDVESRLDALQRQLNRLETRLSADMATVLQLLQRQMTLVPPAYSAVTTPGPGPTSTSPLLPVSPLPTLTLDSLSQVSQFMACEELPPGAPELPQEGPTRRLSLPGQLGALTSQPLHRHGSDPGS
smiles,measurement,setting,value
"COc1ccc(OC)c(/C=C/C(=O)c2ccc(NS(=O)(=O)c3ccc(Cl)cc3)cc2)c1 [Preparation Example 6, (E)-4-Chloro-N-(4-(3-(2,5-dimethoxyphenyl)acryloyl)phenyl)benzenesulfonamide]",maximum platform escape latency,[1]; 1 mg,136.45 (±26.02) seconds
same,minimum time to find the platform,[1]; 1 mg,44.45 (±13.35) seconds
same,"escape latency, fourth trial (short-term memory)","[1]; 1 mg, fourth day, p<0.05",44.45 ± 13.35 s
same,"escape latency, first trial (long-term memory)","[1]; 1 mg, fourth day, p<0.05 vs beta-amyloid group",73.58 ± 9.14 s
same,maximum platform escape latency,[1]; 10 mg,128.59 (±23.32) seconds
same,minimum time to find the platform,[1]; 10 mg,40.64 (±10.94) seconds
same,"escape latency, fourth trial (short-term memory)","[1]; 10 mg, first day, p<0.05",76.14 ± 13.27 s
same,"escape latency, fourth trial (short-term memory)","[1]; 10 mg, fourth day, p<0.05",40.64 ± 10.94 s
same,"escape latency, first trial (long-term memory)","[1]; 10 mg, fourth day, p<0.05 vs beta-amyloid group",65.22 ± 13.65 s
same,"escape latency, fourth trial (short-term memory)","[1]; 10 mg, second day, p<0.05",59.87 ± 12.56 s
same,"escape latency, first trial (long-term memory)","[1]; 10 mg, second day, p<0.05 vs beta-amyloid group",95.05 ± 18.06 s
same,"escape latency, fourth trial (short-term memory)","[1]; 10 mg, third day, p<0.05",54.07 ± 14.38 s
same,"escape latency, first trial (long-term memory)","[1]; 10 mg, third day, p<0.05 vs beta-amyloid group",91.66 ± 12.68 s
same,maximum platform escape latency,[1]; 100 mg,125.66 (±19.35) seconds
same,minimum time to find the platform,[1]; 100 mg,36.48 (±9.54) seconds
same,"escape latency, fourth trial (short-term memory)","[1]; 100 mg, first day, p<0.05",73.79 ± 12.15 s
same,"escape latency, fourth trial (short-term memory)","[1]; 100 mg, fourth day, p<0.01",36.48 ± 9.54 s
same,"escape latency, first trial (long-term memory)","[1]; 100 mg, fourth day, p<0.05 vs beta-amyloid group",64.7 ± 12.63 s
same,"escape latency, first trial (long-term memory)","[1]; 100 mg, second day, p<0.01 vs beta-amyloid group",91.66 ± 12.68 s
same,"escape latency, fourth trial (short-term memory)","[1]; 100 mg, second day, p<0.05",59.62 ± 8.22 s
same,"escape latency, fourth trial (short-term memory)","[1]; 100 mg, third day, p<0.01",47.74 ± 10.81 s
same,"escape latency, first trial (long-term memory)","[1]; 100 mg, third day, p<0.05 vs beta-amyloid group",83.41 ± 11.46 s
same,acetylcholine hydrolase activity,acetylcholine hydrolase; 10 mg,0.25±0.07 U/mg protein
same,acetylcholine hydrolase activity,acetylcholine hydrolase; 100 mg,0.24±0.05 U/mg protein
same,acetylcholine content,"[2]; 1 mg, p<0.05",22.31±1.80 μmole/mg protein
same,acetylcholine content,"[2]; 10 mg, p<0.01",23.08±1.54 μmole/mg protein
same,acetylcholine content,"[2]; 100 mg, p<0.01",22.79±1.45 μmole/mg protein
same,Ames reverse mutation test outcome,"[3]; TA100, 200 μg/plate, with or without S9",negative
same,Reverse mutation [factor] with S-9 mix,"[3]; TA100, with S-9, factor versus control",[1.0]
same,Reverse mutation/dish (mean ± SD) with S-9 mix,"[3]; TA100, with S-9, Preparation Example 6 at 200 μg/plate, Benzo(a)pyrene concentration 2",117 ± 4
same,Reverse mutation [factor] w/o S-9 mix,"[3]; TA100, without S-9, factor versus control",[0.9]
same,Reverse mutation/dish (mean ± SD) w/o S-9 mix,"[3]; TA100, without S-9, Preparation Example 6 at 200 μg/plate, Sodium azide concentration 1",104 ± 12
same,IC50,VERO,83.6 µM
same,IC50,CHO-K1,> 100 µM
same,inhibition at 10 µM,hERG channel; hERG channel (ligand binding assay),< 1%
same,inhibition at 10 µM,hERG channel,≤ 1%
same,solubility,[4],206 µM and 94.4 µg/mL
